{"source": "patent US6680331B2", "about": "“Lactam and thiolactam derivatives as anesthetic and conscious sedation agents” (priority 2001, dated 2004)", "key": {"mice": {"system": "mice", "settings": "cited from earlier work"}, "Female ICR mice": {"system": "Female ICR mice", "assay": "Loss of righting reflex (LORR) model of anesthesia", "type": "in vivo", "source_text": "Female ICR mice, weighing between 18 and 31 g were used for all experiments. The animals were housed four in a cage in a […] light/dark cycle with free access to food and water. Animal weight at the time of the experiment ranged from 22 to 33 g. On the day of the experiment, animals were brought to the lab in groups of 6-8. They were not allowed food or water for the duration of the testing period. After each experiment, animals were sacrificed.\nDiethyl lactam was synthesized as described previously (Example 1 and U.S. Pat. Nos. 6,066,666 and 5,776,959) and dissolved in 0.9% saline. All drugs were given by intraperitoneal (i.p.) injections in a volume of 0.01 ml/g body weight.\nThe anesthetic effect was determined using the loss of righting reflex (LORR) model of anesthesia. […] The time to onset and duration of loss of righting reflex was recorded for each animal.\nAnimals were given diethyl lactam at doses of 250, 325, 375, 500, 625, 750, 875 and 1000 mg/kg of body weight, and the time to regain the righting reflex (RR) as well as the duration of LORR were measured (Table 1). […] Other movements include a shiver (one mouse), a head twitch (one mouse), face vibrations (one mouse) and repetitive hindlimb scratching (one mouse)."}, "[1]": {"settings": "500 mg/kg i.p., mice, ± one standard deviation"}, "[2]": {"settings": "625 mg/kg i.p., mice, ± one standard deviation"}, "[3]": {"settings": "750 mg/kg i.p., mice, ± one standard deviation"}, "[4]": {"settings": "1000 mg/kg i.p., mice, ± one standard deviation"}, "[5]": {"settings": "1000 mg/kg i.p., two mice excluded from the trial, listed as diethyl lactam"}}, "note": "Several values for one entry are separate records, joined by “and”; a condition that tells them apart may be missing. Equal values may be shown once.", "data": [{"smiles": "CCC1(CC)CCCNC1=O", "note": "[3,3-diethyl-2-piperidinone]", "values": [{"measurement": "Sedative activity", "setting": "mice", "result": "only weak sedative activity"}]}, {"smiles": "CCC1(CC)CCNC1=O", "note": "[DiethylABL, 3,3-diethyl-2-pyrrolidinone]", "values": [{"measurement": "Duration of LORR", "setting": "Female ICR mice; 250 mg/kg i.p., mice", "result": 0, "unit": "min"}, {"measurement": "LORR (time to onset of loss of righting reflex)", "setting": "Female ICR mice; 250 mg/kg i.p., mice", "result": "none at 30 min"}, {"measurement": "Duration of LORR", "setting": "Female ICR mice; 325 mg/kg i.p., mice", "result": 0, "unit": "min"}, {"measurement": "LORR (time to onset of loss of righting reflex)", "setting": "Female ICR mice; 325 mg/kg i.p., mice", "result": "none at 30 min"}, {"measurement": "Duration of LORR", "setting": "Female ICR mice; 375 mg/kg i.p., mice", "result": 0, "unit": "min"}, {"measurement": "LORR (time to onset of loss of righting reflex)", "setting": "Female ICR mice; 375 mg/kg i.p., mice", "result": "none at 30 min"}, {"measurement": "Face vibrations", "setting": "Female ICR mice; 500 mg/kg i.p., five mice", "result": "one mouse"}, {"measurement": "Head twitch", "setting": "Female ICR mice; 500 mg/kg i.p., five mice", "result": "one mouse"}, {"measurement": "Mice seen to twitch", "setting": "Female ICR mice; 500 mg/kg i.p., five mice", "result": "Three of the five"}, {"measurement": "Repetitive hindlimb scratching", "setting": "Female ICR mice; 500 mg/kg i.p., five mice", "result": "one mouse"}, {"measurement": "Shiver", "setting": "Female ICR mice; 500 mg/kg i.p., five mice", "result": "one mouse"}, {"measurement": "Physical movements observed during the experiment", "setting": "Female ICR mice; 500 mg/kg i.p., mice", "result": "various physical movements"}, {"measurement": "Duration of LORR", "setting": "Female ICR mice; [1]", "result": "38.8 ± 11.6", "unit": "min"}, {"measurement": "LORR (time to onset of loss of righting reflex)", "setting": "Female ICR mice; [1]", "result": "2.4 ± 1.8", "unit": "min"}, {"measurement": "Regain RR", "setting": "Female ICR mice; [1]", "result": "41 ± 12", "unit": "min"}, {"measurement": "Duration of LORR", "setting": "Female ICR mice; [2]", "result": "51.3 ± 16.2", "unit": "min"}, {"measurement": "LORR (time to onset of loss of righting reflex)", "setting": "Female ICR mice; [2]", "result": "1.7 ± 0.8", "unit": "min"}, {"measurement": "Regain RR", "setting": "Female ICR mice; [2]", "result": "53 ± 16", "unit": "min"}, {"measurement": "Duration of LORR", "setting": "Female ICR mice; [3]", "result": "109.7 ± 2.0", "unit": "min"}, {"measurement": "LORR (time to onset of loss of righting reflex)", "setting": "Female ICR mice; [3]", "result": "0.9 ± 0.3", "unit": "min"}, {"measurement": "Regain RR", "setting": "Female ICR mice; [3]", "result": "110 ± 2", "unit": "min"}, {"measurement": "Duration of LORR", "setting": "Female ICR mice; 875 mg/kg i.p., mice", "result": ">360", "unit": "min"}, {"measurement": "LORR (time to onset of loss of righting reflex)", "setting": "Female ICR mice; 875 mg/kg i.p., mice", "result": 0.8, "unit": "min"}, {"measurement": "Regain RR", "setting": "Female ICR mice; 875 mg/kg i.p., mice", "result": ">360", "unit": "min"}, {"measurement": "Duration of LORR", "setting": "Female ICR mice; [4]", "result": "1470.0 ± 756", "unit": "min"}, {"measurement": "LORR (time to onset of loss of righting reflex)", "setting": "Female ICR mice; [4]", "result": "2.0 ± 2.1", "unit": "min"}, {"measurement": "Regain RR", "setting": "Female ICR mice; [4]", "result": "1470 ± 85", "unit": "min"}, {"measurement": "LORR (time to onset), individual mice excluded as outliers", "setting": "Female ICR mice; [5]", "result": "2.4 min and 4.2 min"}, {"measurement": "LORR duration, individual mice excluded as outliers", "setting": "Female ICR mice; [5]", "result": "156.6 min and 170.3 min"}, {"measurement": "Regaining RR, individual mice excluded as outliers", "setting": "Female ICR mice; [5]", "result": "159 min and 174.5 min"}, {"measurement": "Time of death after injection", "setting": "Female ICR mice; 1000 mg/kg i.p., two mice included in the trial, listed as diethyl lactam", "result": "7.3 min and 4.0 min"}]}]}
